Source: patent US20240424019A1, “SHP1 MODIFIED DENDRITIC CELLS AND EXTRACELLULAR VESICLES DERIVED THEREFROM AND ASSOCIATED METHODS” (BOARD OF REGENTS, THE UNIVERSITY OF TEXAS SYSTEM, priority 2021, published 2024)

Key:
[1] = test system: B16-GMCSF melanoma; test: B16-GMCSF melanoma model; assay type: in vivo, mouse; details: intradermal implants, C57BL/6 mice, 3 mg/kg oral daily, day 19, vs vehicle, n=5
[2] = test system: human iPSC-DCs; test: Activation of human iPSC-derived DCs by flow cytometry; assay type: cell-based; details: vitamin E 50 μg/ml or TPI-1 1 μg/ml, 72 h, gated on CD11c+
Description: FIG. 10A: Representative high magnification photomicrographs (100×, 200×, 400×) illustrating the morphology of colonies and individual cells of fully differentiated iPSC-derived DCs (iPSC-DCs) displaying characteristic DC morphology consisting of protrusions and veils of cytoplasm at the end of the differentiation procedure (day 23) after using the differentiation protocol for the addition and withdrawal of growth factors and cytokines. FIG. 10B: Phenotypic characterization of generated human iPSC-DCs. Representative flow cytometry analysis depicting the expression of DC lineage markers by iPSC-DCs gated on the CD11c+ population. Levels of expression of individual markers are shown as red histograms, while non-specific staining by isotype controls is shown as light blue histograms. FIG. 10C: Phenotypic characterization of human iPSC-DCs after treatment with vitamin E or TPI-1 to inhibit SHP1. Representative flow cytometry analysis (left panel) and quantification (right panel) depicting the expression of indicated activity markers by iPSC-DCs gated on the CD11c+population with the treatment of vehicle, vitamin E (50 μg/ml) or TPI-1 (1 μg/ml) for 72 h.
We explored the feasibility of differentiating populations of primary DCs from iPSCs and characterized the phenotype of iPSC-DC with the pharmacological inhibition of SHP1 by vitamin E or TPI-1. […]

Structure (SMILES): O=C1C=CC(=O)C(c2cc(Cl)ccc2Cl)=C1 [TPI-1, 2-(2,5-dichlorophenyl)-2,5-cyclohexadiene-1,4-dione]
- mean tumor volume [1]: significantly smaller tumor volume
- expression of DC activation markers on iPSC-DCs [2]: increased expression of DC activation markers CD40 and CD86
